Source: patent publication US9845297B2, “Antimicrobial compounds and methods of making and using the same” (Melinta Therapeutics, Inc., priority 2009, dated 2017)

system: Eschericia coli strain ATCC25922; test: standard microdilution assay to determine minimum inhibitory concentrations (MICs); format: cell-based; conditions: Escherichia coli, ATCC25922, Eschericia coli strain ATCC25922, standard microdilution assay; read-out: E. coli ATCC25922 MIC
Method in brief: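 Broth microdilution per CLSI protocols, typically 100 µL final volume, against E. coli ATCC25922. MIC values scored as +/− against a cutoff of 16 micrograms/ml.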

| MIC [µg/mL] | SMILES |
| --- | --- |
| > 16 | N#CCCCN(CCCN)Cc1ccc(-c2c[nH]c(NC(=O)Nc3cc(F)c(F)cc3F)nc2=O)cc1 [Compound 443] |
| > 16 | NCCCN(CCCNC(N)=O)Cc1ccc(-c2c[nH]c(NC(=O)Nc3cc(F)c(F)cc3F)nc2=O)cc1 [Compound 444] |
| > 16 | NCCCNCc1ccc(-c2c[nH]c(NC(=O)Nc3cccc4nsnc34)nc2=O)cc1F [Compound 445] |
| > 16 | Cc1ncc(-c2cccc(NC(=O)Nc3nc(=O)c(-c4ccc(CNCCCN)c(F)c4)c[nH]3)c2)s1 [Compound 446] |
| > 16 | O=C(Nc1nc(=O)c(-c2ccc(CNCCc3c[nH]c(=O)[nH]3)cc2)c[nH]1)Nc1ccccc1OC(F)(F)F [Compound 448] |
| > 16 | NCCCNCc1ccc(-c2c[nH]c(NC(=O)Nc3c(F)c(F)c(F)c(F)c3F)nc2=O)cc1F [Compound 449] |
| < 16 | NCCCNCc1ccc(-c2c[nH]c(NC(=O)Nc3cccc(Cl)c3F)nc2=O)cc1F [Compound 450] |
| < 16 | NCCCNCc1ccc(-c2c[nH]c(NC(=O)NCCc3ccc(Cl)c(Cl)c3)nc2=O)cc1F [Compound 451] |
| < 16 | N#Cc1ccc(NC(=O)Nc2nc(=O)c(-c3ccc(CN(CCCN)CCCNC(=N)N)cc3)c[nH]2)cc1 [Compound 452] |
| < 16 | N=C(N)NCCCN(CCCN)Cc1ccc(-c2c[nH]c(NC(=O)Nc3cc(Cl)cc(Cl)c3)nc2=O)cc1 [Compound 453] |
| < 16 | NCCCNCc1ccc(-c2c[nH]c(Nc3nc4cc(F)c(F)cc4o3)nc2=O)cc1 [Compound 454] |
| > 16 | NCCCN1CCC(c2c[nH]c(NC(=O)Nc3ccccc3OC(F)(F)F)nc2=O)CC1 [Compound 455] |
| > 16 | NC(N)NCCCN1CCC(c2c[nH]c(NC(=O)Nc3ccccc3OC(F)(F)F)nc2=O)CC1 [Compound 456] |
| > 16 | NCCCNCc1ccc(-c2c[nH]c(NC(=O)Nc3cc([N+](=O)[O-])ccc3Cl)nc2=O)cc1F [Compound 457] |
| < 16 | NCCCNCc1ccc(-c2c[nH]c(Nc3nc4cc(F)c(F)cc4[nH]3)nc2=O)c(F)c1 [Compound 458] |
| > 16 | NCCCNCc1ccc(-c2c[nH]c(NC(=O)Nc3ccc(Cl)c(C(F)(F)F)c3)nc2=O)cc1F [Compound 459] |

| MIC [µg/mL] | SMILES |
| --- | --- |
| > 16 | NCCCNCc1ccc(-c2c[nH]c(NC(=O)Nc3c(Cl)cc(Cl)cc3Cl)nc2=O)cc1F [Compound 461] |
| > 16 | NCCCNCc1ccc(-c2c[nH]c(NC(=O)Nc3ccc(F)c(F)c3F)nc2=O)cc1F [Compound 462] |
| < 16 | NCCCNCc1ccc(-c2c[nH]c(NC(=O)NCc3ccc(Cl)cc3Cl)nc2=O)cc1F [Compound 463] |
| > 16 | NCCCNCc1ccc(-c2c[nH]c(NC(=O)NCc3ccc(Cl)c(Cl)c3)nc2=O)cc1F [Compound 464] |
| > 16 | N=C(N)NCCCN(CCCN)Cc1ccc(-c2c[nH]c(NC(=O)NCCc3ccc(F)cc3)nc2=O)cc1 [Compound 465] |
| > 16 | N=C(N)NCCCC(CCCN)Cc1ccc(-c2c[nH]c(NC(=O)NCCc3cccc(Cl)c3)nc2=O)cc1 (stereo not shown) [Compound 466] |
| < 16 | NCCCNCc1ccc(-c2c[nH]c(Nc3nc4cc(F)c(F)cc4o3)nc2=O)c(F)c1 [Compound 467] |
| < 16 | NCCCN(CCCN)Cc1ccc(-c2c[nH]c(Nc3nc4cc(F)c(F)cc4[nH]3)nc2=O)cc1 [Compound 468] |
| < 16 | NCCCN(CCCN)Cc1ccc(-c2c[nH]c(Nc3nc4cc(F)c(F)cc4o3)nc2=O)cc1 [Compound 470] |
| < 16 | NCCCNCc1ccc(-c2c[nH]c(Nc3nc4cc(F)c(F)cc4o3)nc2=O)cc1F [Compound 471] |
| > 16 | Cc1c(Cl)cc2nc(Nc3nc(=O)c(-c4ccc(CN(CCCN)CCCN)c(F)c4)c[nH]3)oc2c1Cl [Compound 472] |
| > 16 | NCCCN(CCCN)Cc1ccc(-c2c[nH]c(Nc3nc4ccccc4[nH]3)nc2=O)cc1 [Compound 473] |
| < 16 | NCCCN(CCCNC(N)N)Cc1ccc(-c2c[nH]c(Nc3nc4ccccc4[nH]3)nc2=O)cc1 [Compound 474] |
| > 16 | N=C(N)NCCCN(CCCN)Cc1ccc(-c2c[nH]c(NC(=O)NCCc3ccc(Cl)cc3Cl)nc2=O)cc1 [Compound 476] |
| > 16 | N=C(N)NCCCN(CCCN)Cc1ccc(-c2c[nH]c(NC(=O)NCCc3c(Cl)cccc3Cl)nc2=O)cc1 [Compound 477] |

Continued, compound first:

| SMILES | MIC [µg/mL] |
| --- | --- |
| NCCCNCc1ccc(-c2c[nH]c(NC(=O)Nc3ccc(F)c([N+](=O)[O-])c3)nc2=O)cc1F [Compound 389] | > 16 |
| NCCCN(CCCNC(N)=O)Cc1ccc(-c2c[nH]c(NC(=O)Nc3ccccc3OC(F)(F)F)nc2=O)cc1 [Compound 394] | < 16 |
| NC(=O)NCCCNCc1ccc(-c2c[nH]c(NC(=O)Nc3cc(F)c(F)cc3F)nc2=O)cc1 [Compound 395] | > 16 |
| NCCCN(CCC1CC1)Cc1ccc(-c2c[nH]c(NC(=O)Nc3ccccc3OC(F)(F)F)nc2=O)cc1 [Compound 397] | > 16 |
| N#CCCCN(CCCN)Cc1ccc(-c2c[nH]c(NC(=O)Nc3ccccc3OC(F)(F)F)nc2=O)cc1 [Compound 398] | > 16 |
| NCCCN(CCCc1cccnc1)Cc1ccc(-c2c[nH]c(NC(=O)Nc3cc(F)c(F)cc3F)nc2=O)cc1 [Compound 399] | > 16 |
| NCCCN(CCC1CC1)Cc1ccc(-c2c[nH]c(NC(=O)Nc3cc(F)c(F)cc3F)nc2=O)cc1 [Compound 401] | < 16 |
| NCCCN(CCCN)Cc1ccc(-c2c[nH]c(Nc3nc4cc(C(F)(F)F)cc(Cl)c4o3)nc2=O)cc1F [Compound 403] | > 16 |
| NCCCN(CCCN)Cc1ccc(-c2c[nH]c(Nc3nc4ccc(C(F)(F)F)cc4o3)nc2=O)cc1F [Compound 404] | > 16 |
| NCCCN1CCN(C(=O)Cc2c[nH]c(NC(=O)Nc3ccccc3OC(F)(F)F)nc2=O)CC1 [Compound 405] | > 16 |
| Cc1[nH]c(NC(=O)Nc2ccccc2OC(F)(F)F)nc(=O)c1CC(=O)N1CCN(CCCN)CC1 [Compound 406] | > 16 |
| NCCCN[C@H]1CCN(C(=O)Cc2c[nH]c(NC(=O)Nc3ccccc3OC(F)(F)F)nc2=O)C1 [Compound 407] | > 16 |
| NCCCN1CCN(C(=O)Cc2c[nH]c(NC(=O)Nc3cccc(Cl)c3Cl)nc2=O)CC1 [Compound 408] | > 16 |
| O=C(Nc1nc(=O)c(CC(=O)N2CCNCC2)c[nH]1)Nc1ccccc1OC(F)(F)F [Compound 409] | > 16 |
| N[C@@H]1CCN(C(=O)Cc2c[nH]c(NC(=O)Nc3ccccc3OC(F)(F)F)nc2=O)C1 [Compound 410] | > 16 |
| NCCCNCc1ccc(-c2c[nH]c(Nc3nc4ccccc4[nH]3)nc2=O)cc1F [Compound 412] | < 16 |
| NCCCNCc1ccc(-c2c[nH]c(NC(=O)Nc3ccc(F)c(C(F)(F)F)c3)nc2=O)cc1F [Compound 413] | > 16 |
| CCOc1ccc(NC(=O)Nc2nc(=O)c(-c3ccc(CNCCCN)c(F)c3)c[nH]2)c([N+](=O)[O-])c1 [Compound 414] | > 16 |
| COc1cc([N+](=O)[O-])ccc1NC(=O)Nc1nc(=O)c(-c2ccc(CNCCCN)c(F)c2)c[nH]1 [Compound 415] | > 16 |
| COc1ccc([N+](=O)[O-])cc1NC(=O)Nc1nc(=O)c(-c2ccc(CNCCCN)c(F)c2)c[nH]1 [Compound 416] | > 16 |
| NCCCNCc1ccc(-c2c[nH]c(NC(=O)Nc3ccc(N4C(=O)C=CC4=O)cc3)nc2=O)cc1F [Compound 417] | > 16 |

| SMILES | MIC [µg/mL] |
| --- | --- |
| NCCCNCc1ccc(-c2c[nH]c(NC(=O)Nc3cccc(-n4cccc4)c3)nc2=O)cc1F [Compound 418] | > 16 |
| NCCCNCc1ccc(-c2c[nH]c(NC(=O)Nc3ccc(C(F)(F)F)cc3Cl)nc2=O)cc1F [Compound 419] | < 16 |
| NCCCNCc1ccc(-c2c[nH]c(NC(=O)NCCc3ccc(Cl)cc3Cl)nc2=O)cc1F [Compound 420] | < 16 |
| NCCCNCc1ccc(-c2c[nH]c(NC(=O)NCCc3cccc(Cl)c3)nc2=O)cc1F [Compound 421] | > 16 |
| N=C(N)NCCCN1CCN(c2c[nH]c(NC(=O)Nc3ccccc3OC(F)(F)F)nc2=O)CC1 [Compound 422] | > 16 |
| NCCCNCc1ccc(-c2c[nH]c(NC(=O)NCCc3ccc(Cl)cc3)nc2=O)cc1F [Compound 423] | > 16 |
| Cc1nc(-c2cccc(NC(=O)Nc3nc(=O)c(-c4ccc(CNCCCN)c(F)c4)c[nH]3)c2)cs1 [Compound 424] | > 16 |
| NCCCN1CCN(c2c[nH]c(NC(=O)Nc3ccccc3OC(F)(F)F)nc2=O)CC1 [Compound 425] | > 16 |
| CCS(=O)(=O)c1ccc2oc(Nc3nc(=O)c(-c4ccc(CN(CCCN)CCCN)c(F)c4)c[nH]3)nc2c1 [Compound 427] | > 16 |
| Cn1c(Nc2nc(=O)c(-c3ccc(CN(CCCN)CCCN)c(F)c3)c[nH]2)nc2ccccc21 [Compound 428] | > 16 |
| N=C(N)NCCCN1CCN(C(=O)Cc2c[nH]c(NC(=O)Nc3ccccc3OC(F)(F)F)nc2=O)CC1 [Compound 429] | > 16 |
| N=C(N)NCCCNC1CCN(c2c[nH]c(NC(=O)Nc3ccccc3OC(F)(F)F)nc2=O)C1 (stereo not shown) [Compound 431] | > 16 |
| NCCCNCc1ccc(-c2c[nH]c(NC(=O)Nc3ccccc3OC(F)(F)F)nc2=O)c(F)c1 [Compound 432] | < 16 |
| NCCCNCc1ccc(-c2c[nH]c(NC(=O)Nc3cccc(Cl)c3Cl)nc2=O)c(F)c1 [Compound 433] | < 16 |
| NCCCNCc1ccc(-c2c[nH]c(NC(=O)Nc3cc(F)c(F)cc3F)nc2=O)c(F)c1 [Compound 434] | > 16 |
| NCCCNCc1ccc(-c2c[nH]c(NC(=O)NCCc3ccc(F)cc3)nc2=O)cc1F [Compound 435] | > 16 |
| NCCCNCc1ccc(-c2c[nH]c(NC(=O)Nc3ccc(Cl)cc3F)nc2=O)cc1F [Compound 436] | < 16 |
| NCCCNCc1ccc(-c2c[nH]c(NC(=O)NCCc3c(Cl)cccc3Cl)nc2=O)cc1F [Compound 437] | > 16 |
| NCCCNCc1ccc(-c2c[nH]c(Nc3nc4cc(F)c(F)cc4[nH]3)nc2=O)cc1 [Compound 438] | < 16 |
| NCCCNCc1ccc(-c2c[nH]c(Nc3nc4cc(F)c(F)cc4[nH]3)nc2=O)cc1F [Compound 439] | < 16 |
| O=C(Nc1nc(=O)c(-c2ccc(CNCCC3CC3)cc2)c[nH]1)Nc1ccccc1OC(F)(F)F [Compound 441] | > 16 |
